The test system of one assay is MT4. As to the kind of experiment: Compound was tested for the inhibition of HIV-1 in MT-4 human T-lymphoid cells infected with IIIB isolate. The settings on record: read-out: ID50 (the source's name). Format: functional.
The target in assay [1] is Human immunodeficiency virus type 1 protease (Human immunodeficiency virus 1, UniProt Q72874). As to the kind of experiment: Inhibitory activity against HIV-1 protease.

For `CC(C)CN(C[C@@H](O)[C@H](Cc1ccccc1)NC(=O)O[C@H]1CCOC1)S(=O)(=O)c1ccc(N)cc1`, the IC50 in the assay on MT4 came out at 15 nM. Also, in assay [1], the Ki was 1.6 nM.

Turning to `CC(C)CN(C[C@@H](O)[C@H](Cc1ccccc1)NC(=O)O[C@H]1CO[C@H]2OCC[C@H]21)S(=O)(=O)c1ccc(N)cc1`, in the assay on MT4, the IC50 came to 4.5 nM.

For `Cc1ccc(S(=O)(=O)N(CC(C)C)C[C@@H](O)[C@H](Cc2ccccc2)NC(=O)O[C@H]2CO[C@H]3OCC[C@H]32)cc1`, the IC50 with MT4 turned out to be 3.5 nM. The same compound returned a Ki in assay [1] of 1.2 nM.

As to `COc1ccc(S(=O)(=O)N(CC(C)C)C[C@@H](O)[C@H](Cc2ccccc2)NC(=O)O[C@H]2CCOC2)cc1`, the IC50 in the assay with MT4 came to 12 nM. The compound further showed a Ki in assay [1] of 1.5 nM.

Regarding `COc1ccc(S(=O)(=O)N(CC(C)C)C[C@@H](O)[C@H](Cc2ccccc2)NC(=O)O[C@H]2CCS(=O)(=O)C2)cc1`, in the assay with MT4, the IC50 amounted to 19 nM. The Ki in assay [1] stood at 1.2 nM.

On to `COc1ccc(S(=O)(=O)N(CC(C)C)C[C@@H](O)[C@H](Cc2ccccc2)NC(=O)O[C@H]2CCSC2)cc1`, for which the IC50 in the assay with MT4 turned out to be 47 nM. This compound also gave a Ki in assay [1] of 2.5 nM.

With `COc1ccc(S(=O)(=O)N(CC(C)C)C[C@@H](O)[C@H](Cc2ccccc2)NC(=O)O[C@@H]2CCS(=O)(=O)[C@@H]2C(C)C)cc1`, the IC50 in the assay on MT4 was 18 nM. In addition, the inhibitory constant (Ki) in assay [1] was determined as 1.4 nM.

Turning to `CC(C)CN(C[C@@H](O)[C@H](Cc1ccccc1)NC(=O)O[C@@H]1CCS(=O)(=O)[C@@H]1C(C)C)S(=O)(=O)c1ccc(N)cc1`, in the assay with MT4, the IC50 was 40 nM. The compound further yielded an inhibitory constant (Ki) in assay [1] of 1.5 nM.

Take `COc1ccc(S(=O)(=O)N(CC(C)C)C[C@@H](O)[C@H](Cc2ccccc2)NC(=O)O[C@@H]2CO[C@@H]3OCCC[C@@H]32)cc1`: the IC50 in the assay with MT4 came out at 4.5 nM. Moreover, the Ki in assay [1] was determined as 2.2 nM.

With `COc1ccc(S(=O)(=O)N(CC(C)C)C[C@@H](O)[C@H](Cc2ccccc2)NC(=O)O[C@H]2CO[C@H]3OCC[C@H]32)cc1`, the IC50 in the assay on MT4 came to 1.4 nM. The compound also displayed a Ki in assay [1] of 1.1 nM.

Broadly, the Ki is a dissociation constant, usually derived from enzyme kinetics or from competition with a known ligand.

The record behind these values is ChEMBL document CHEMBL1131511, “Potent HIV protease inhibitors incorporating high-affinity P2-ligands and (R)-(hydroxyethylamino)sulfonamide isostere” (Bioorg Med Chem Lett, 1998).
